Experimental data published in ChEMBL document CHEMBL5634151, “Anti-adipogenic action of a novel oxazole derivative through activation of AMPK pathway” (Eur J Med Chem, 2023).
Active and inactive are the calls of the source. The calls are words filed in the database; no cut-off is given here.

Legend:
3T3-L1 [1] = assay: Induction of mitochondrial respiration in MDI-cocktail differentiated mouse 3T3-L1 pre-adipocyte cells assessed as increase in oxygen consumption rate at 5 uM incubated for 72 hrs by Seahorse XFp flux analyzer; format: functional, cell-based
3T3-L1 [2] = assay: Induction of mitochondrial respiration in MDI-cocktail differentiated mouse 3T3-L1 pre-adipocyte cells assessed as increase in oxygen consumption rate at 5 uM incubated for 72 hrs in presence of oligomycin by Seahorse XFp flux analyzer; format: functional, cell-based
3T3-L1 [3] = assay: Cytotoxicity against mouse 3T3-L1 pre-adipocyte cells assessed as reduction in cell viability 100 uM incubated for 48 hrs by MTT assay; format: toxicity, cell-based; settings: 3t3-l1, 48 h
Syrian golden hamster [4] = assay: Anti-obesity activity in high-fat diet induced Syrian golden hamster model assessed as reduction in adipose hypertrophy at 50 mg/kg, po administered for 7 days by H and E staining based inverted microscopic analysis; format: functional, organism-based; settings: Mesocricetus auratus, time 7.0 day
Syrian golden hamster [5] = assay: Anti-dyslipidaemic activity in high-fat diet induced Syrian golden hamster model assessed as assessed as increase in serum HDL level at 25 to 50 mg/kg, po administered for 7 days; format: functional, organism-based; settings: Mesocricetus auratus, dose 25-50 mg/kg, time 7.0 day
3T3-L1 [6] = assay: Upregulation of CI-NDUFB8 protein expression in mouse 3T3-L1 mature adipocytes at 1 to 5 uM incubated for 24 hrs by Western blot analysis; format: functional, cell-based; settings: dose 1-5 µM
3T3-L1 [7] = assay: Inhibition of MDI-cocktail induced adipogenic differentiation in mouse 3T3-L1 pre-adipocyte cells assessed as reduction in FABP4 gene expression at 5 uM by qRT-PCR analysis; format: functional, cell-based
3T3-L1 [8] = assay: Anti-adipogenic activity in MDI-cocktail differentiated mouse 3T3-L1 pre-adipocyte cells assessed as reduction in C/EBPalpha protein expression at 5 uM measured for 3 to 7 days by immunoblotting analysis; format: functional, cell-based; settings: time 3-7 day
Syrian golden hamster [9] = assay: Anti-dyslipidaemic activity in high-fat diet induced Syrian golden hamster model assessed as assessed as reduction in serum triglyceride level at 25 to 50 mg/kg, po administered for 7 days; format: functional, organism-based; settings: Mesocricetus auratus, dose 25-50 mg/kg, time 7.0 day
[10] = Toxicity in high-fat diet induced Syrian golden hamster obese model assessed as effect on food intake at 25 to 50 mg/kg, po administered for 7 days and measured daily; format: organism-based, Mesocricetus auratus; settings: in vivo, 168 h, dose 25-50 mg/kg, time 7 day
C3H 10T1/2 [11] = assay: Anti-adipogenic activity in MDI-cocktail differentiated mouse C3H 10T1/2 cells assessed as reduction in adipogenic differentiation at 5 uM measured after 0 to 5 days by Oil Red O staining based microscopic analysis; format: functional, cell-based; settings: time 0-5 day
3T3-L1 [12] = assay: Inhibition of MDI-cocktail induced adipogenic differentiation in mouse 3T3-L1 pre-adipocyte cells assessed as inhibition of lipid accumulation by Oil Red O staining based microscopic analysis; format: functional, cell-based; settings: dose 0.5-20 µM
3T3-L1 [13] = assay: Upregulation of CIII-UQCRC2 protein expression in mouse 3T3-L1 mature adipocytes at 1 to 5 uM incubated for 24 hrs by Western blot analysis; format: functional, cell-based; settings: dose 1-5 µM
3T3-L1 [14] = assay: Anti-adipogenic activity in MDI-cocktail differentiated mouse 3T3-L1 pre-adipocyte cells assessed as reduction in adipogenic differentiation at 5 uM measured after 0 to 3 days by Oil Red O staining based microscopic analysis; format: functional, cell-based; settings: time 0-3 day
C3H 10T1/2 [15] = assay: Anti-adipogenic activity in MDI-cocktail differentiated mouse C3H 10T1/2 cells assessed as reduction in adipogenic differentiation at 5 uM measured after 0 to 7 days by Oil Red O staining based microscopic analysis; format: functional, cell-based; settings: time 0-7 day
Syrian golden hamster [16] = assay: Hepatoprotective activity in high-fat diet induced Syrian golden hamster model assessed as reduction in serum AST level at 25 to 50 mg/kg, po administered for 7 days; format: functional, organism-based; settings: Mesocricetus auratus, dose 25-50 mg/kg, time 7.0 day
3T3-L1 [17] = assay: Induction of cell cycle arrest in MDI-cocktail differentiated mouse 3T3-L1 pre-adipocyte cells assessed as reduction in cyclin D1 protein expression at 5 uM measured after 16 to 24 hrs by immunoblotting analysis; format: functional, cell-based; settings: time 16-24 hrs
3T3-L1 [18] = assay: Anti-adipogenic activity in MDI-cocktail differentiated mouse 3T3-L1 pre-adipocyte cells assessed as inhibition of adipogenesis by Oil Red O staining based microscopic analysis; format: functional, cell-based
C3H 10T1/2 [19] = assay: Inhibition of MDI-cocktail induced adipogenic differentiation in mouse C3H 10T1/2 cells assessed as reduction in lipid bound stain absorbance at 0.5 to 25 uM by Oil Red O staining based microscopic analysis; format: functional, cell-based; settings: dose 0.5-25 µM
3T3-L1 [20] = assay: Induction of ATP production during early phase in MDI-cocktail differentiated mouse 3T3-L1 pre-adipocyte cells 5 uM incubated for 72 hrs by Seahorse XFp flux analyzer; format: functional, cell-based
Syrian golden hamster [21] = assay: Anti-obesity activity in high-fat diet induced Syrian golden hamster model assessed as reduction in lean mass at 50 mg/kg, po administered for 7 days by 1H NMR spectroscopy-based Echo MRI system; format: functional, organism-based; settings: Mesocricetus auratus, time 7.0 day
3T3-L1 [22] = assay: Anti-adipogenic activity in MDI-cocktail differentiated mouse 3T3-L1 pre-adipocyte cells assessed as reduction in FABP4 protein expression at 5 uM measured for 3 to 7 days by immunoblotting analysis; format: functional, cell-based; settings: time 3-7 day
C3H 10T1/2 [23] = assay: Inhibition of MDI-cocktail induced adipogenic differentiation in mouse C3H 10T1/2 cells assessed as inhibition of lipid accumulation by Oil Red O staining based microscopic analysis; format: functional, cell-based; settings: dose 0.5-20 µM
3T3-L1 [24] = assay: Induction of mitochondrial membrane potential in mouse 3T3-L1 mature adipocytes assessed as increase in TMRE fluorescence at 1 to 5 uM incubated for 24 hrs by TMRE staining based fluorescence microscopic analysis; format: functional, cell-based; settings: dose 1-5 µM
3T3-L1 [25] = assay: Upregulation of CIV-MTCO1 protein expression in mouse 3T3-L1 mature adipocytes at 1 to 5 uM incubated for 24 hrs by Western blot analysis; format: functional, cell-based; settings: dose 1-5 µM
3T3-L1 [26] = assay: Inhibition of MDI-cocktail induced adipogenic differentiation in mouse 3T3-L1 pre-adipocyte cells assessed as increase in ACC phosphorylation at Ser79 residue by Western blot analysis; format: functional, cell-based; settings: dose 0.5-5 µM
3T3-L1 [27] = assay: Anti-adipogenic activity in MDI-cocktail differentiated mouse 3T3-L1 pre-adipocyte cells assessed as reduction in adipogenic differentiation at 5 uM measured after 3 to 7 days by Oil Red O staining based microscopic analysis; format: functional, cell-based; settings: time 3-7 day
3T3-L1 [28] = assay: Inhibition of MDI-cocktail induced adipogenic differentiation in mouse 3T3-L1 pre-adipocyte cells assessed as reduction in lipid bound stain absorbance at 0.5 to 25 uM by Oil Red O staining based microscopic analysis; format: functional, cell-based; settings: dose 0.5-25 µM
3T3-L1 [29] = assay: Cytotoxicity against mouse 3T3-L1 pre-adipocyte cells assessed as reduction in cell viability >20 uM incubated for 48 hrs by MTT assay; format: toxicity, cell-based; settings: 3t3-l1, 48 h
C3H 10T1/2 [30] = assay: Anti-adipogenic activity in MDI-cocktail differentiated mouse C3H 10T1/2 cells assessed as reduction in adipogenic differentiation at 5 uM measured after 5 to 7 days by Oil Red O staining based microscopic analysis; format: functional, cell-based; settings: time 5-7 day
3T3-L1 [31] = assay: Anti-adipogenic activity in MDI-cocktail differentiated mouse 3T3-L1 pre-adipocyte cells assessed as inhibition of adipogenesis at 20 uM by Oil Red O staining based microscopic analysis relative to control; format: functional
C3H 10T1/2 [32] = assay: Anti-adipogenic activity in MDI-cocktail differentiated mouse C3H 10T1/2 cells assessed as reduction in adipogenic differentiation at 5 uM measured after 3 to 7 days by Oil Red O staining based microscopic analysis; format: functional, cell-based; settings: time 3-7 day

In the case of `Cc1ccc(-c2cnc(-c3ccc[n+](Cc4cccc(C)c4)c3)o2)cc1.[Br-]`, the Activity (3T3-L1 [1]) is reported as “Active”, the Activity (3T3-L1 [2]) is reported as “Active” and the Activity (3T3-L1 [3]) is reported as “Toxic”. For the same compound, the Activity (Syrian golden hamster [4]) was “Active”, the Activity (Syrian golden hamster [5]) was “inactive” and the Activity (3T3-L1 [6]) was “Active”. For the same compound, the inhibition (3T3-L1 [7]) was “Active”, the Activity (3T3-L1 [8]) was “Active” and the Activity (Syrian golden hamster [9]) was “Active”. For the same compound, the Activity [10] was “Non-Toxic”, the Activity (C3H 10T1/2 [11]) was “Active” and the inhibition (3T3-L1 [12]) was “Active”. For the same compound, the Activity (3T3-L1 [13]) was “Active”, the Activity (3T3-L1 [14]) was “Active” and the Activity (C3H 10T1/2 [15]) was “Active”. For the same compound, the Activity (Syrian golden hamster [16]) was “Active”, the Activity (3T3-L1 [17]) was “Active” and the IC50 (3T3-L1 [18]; read-out: IC50) was 390 nM. The IC50 (3T3-L1 [18]; read-out: pIC50 (converted)) was 390 nM, the inhibition (C3H 10T1/2 [19]) was “Active” and the Activity (3T3-L1 [20]) was “Active”. For the same compound, the Activity (Syrian golden hamster [21]) was “Active”, the Activity (3T3-L1 [22]) was “Active” and the inhibition (C3H 10T1/2 [23]) was “Active”. For the same compound, the Activity (3T3-L1 [24]) was “Active”, the Activity (3T3-L1 [25]) was “Active” and the inhibition (3T3-L1 [26]) was “Dose-Dependent Effect”. For the same compound, the Activity (3T3-L1 [27]) was “Active”, the inhibition (3T3-L1 [28]) was “Active” and the Activity (3T3-L1 [29]) was “Non-Toxic”. The Activity (C3H 10T1/2 [30]) was “Active”, the inhibition at 20 µM (3T3-L1 [31]) was > 70% and the Activity (C3H 10T1/2 [32]) was “Active”.
